Reference: paper PMC7827406, “Structure–Activity Relationship (SAR) Study of Spautin-1 to Entail the Discovery of Novel NEK4 Inhibitors” (International Journal of Molecular Sciences, 2021)
Like-named read-outs stand apart in the source and are kept apart here.

Assays:
Assay in all cases: biochemical
Design in all cases: Eurofins KinaseProfiler full panel at Km ATP, residual kinase activity (%) relative to DMSO
MRCKα(h) = target: T1, MRCKα(h) (Homo sapiens, UniProt Q5VT25)
T1 construct: gene CDC42BPA
How it was run: (§1)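 Compounds screened at 10 µM in radiometric kinase activity assays at Km ATP, reported as remaining kinase activity (%). A KINOMEscan competition-binding screen at 10 µM measured DNA-tagged kinase retained on immobilized active-site ligand by qPCR.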

BTK(h) = BTK(h) (Homo sapiens, UniProt Q06187)
How it was run: as §1

TTBK2(h) = TTBK2(h) (Homo sapiens, UniProt Q6IQ55)
How it was run: as §1

Txk(h) = target: T2, Txk(h) (Homo sapiens, UniProt P42681)
T2 sequence (P42681 1-527): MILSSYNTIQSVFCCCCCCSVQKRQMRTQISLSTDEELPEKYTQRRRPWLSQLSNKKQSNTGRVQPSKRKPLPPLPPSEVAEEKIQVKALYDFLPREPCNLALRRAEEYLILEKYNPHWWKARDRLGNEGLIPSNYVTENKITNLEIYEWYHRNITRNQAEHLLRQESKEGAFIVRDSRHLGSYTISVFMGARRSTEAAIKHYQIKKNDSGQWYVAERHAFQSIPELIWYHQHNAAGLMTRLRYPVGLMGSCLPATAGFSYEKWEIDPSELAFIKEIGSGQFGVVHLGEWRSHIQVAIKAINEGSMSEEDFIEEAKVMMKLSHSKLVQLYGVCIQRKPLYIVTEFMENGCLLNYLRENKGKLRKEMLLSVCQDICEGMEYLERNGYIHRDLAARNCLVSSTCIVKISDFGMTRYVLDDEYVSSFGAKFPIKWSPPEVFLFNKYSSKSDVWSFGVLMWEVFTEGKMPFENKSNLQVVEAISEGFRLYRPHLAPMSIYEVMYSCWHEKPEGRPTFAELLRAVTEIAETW
How it was run: as §1

SRPK1(h) = SRPK1(h) (Homo sapiens, UniProt Q96SB4)
How it was run: as §1

Flt3(h) = target: T3, Flt3(h) (Homo sapiens, UniProt P36888)
T3 sequence (P36888 1-993): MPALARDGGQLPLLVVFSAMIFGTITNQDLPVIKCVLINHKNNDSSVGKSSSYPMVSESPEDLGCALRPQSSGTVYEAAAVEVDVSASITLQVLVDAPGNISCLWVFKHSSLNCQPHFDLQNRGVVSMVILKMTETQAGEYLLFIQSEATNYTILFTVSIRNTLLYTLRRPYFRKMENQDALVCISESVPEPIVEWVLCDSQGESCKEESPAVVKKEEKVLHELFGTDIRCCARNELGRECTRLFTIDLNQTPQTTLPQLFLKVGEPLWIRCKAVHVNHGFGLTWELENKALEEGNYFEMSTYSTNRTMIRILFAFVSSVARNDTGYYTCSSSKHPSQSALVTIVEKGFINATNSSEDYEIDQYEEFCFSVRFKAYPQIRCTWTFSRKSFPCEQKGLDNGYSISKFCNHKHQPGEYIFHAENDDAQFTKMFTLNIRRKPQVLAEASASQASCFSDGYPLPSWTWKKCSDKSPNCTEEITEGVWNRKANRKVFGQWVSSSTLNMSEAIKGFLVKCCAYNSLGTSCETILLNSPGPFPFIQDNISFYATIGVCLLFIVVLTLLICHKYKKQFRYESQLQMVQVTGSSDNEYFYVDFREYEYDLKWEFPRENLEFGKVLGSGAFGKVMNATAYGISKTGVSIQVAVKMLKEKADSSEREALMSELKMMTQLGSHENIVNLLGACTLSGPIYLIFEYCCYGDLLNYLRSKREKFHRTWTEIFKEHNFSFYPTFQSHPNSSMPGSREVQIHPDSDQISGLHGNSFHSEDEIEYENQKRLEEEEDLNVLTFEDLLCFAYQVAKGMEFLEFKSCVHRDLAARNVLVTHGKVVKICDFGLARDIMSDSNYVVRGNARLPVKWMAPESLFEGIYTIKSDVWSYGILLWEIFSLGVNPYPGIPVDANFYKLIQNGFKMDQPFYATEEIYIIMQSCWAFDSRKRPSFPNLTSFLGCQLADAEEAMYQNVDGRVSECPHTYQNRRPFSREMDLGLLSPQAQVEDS
How it was run: as §1

[1] = read-out: Residual activity (%) 5ay
[2] = read-out: Residual activity (%) Spautin-1 5aa
[3] = read-out: Residual activity (%) 5at
[4] = read-out: Residual activity (%) 5as

SRPK1(h), sequence (Q96SB4 whole entry): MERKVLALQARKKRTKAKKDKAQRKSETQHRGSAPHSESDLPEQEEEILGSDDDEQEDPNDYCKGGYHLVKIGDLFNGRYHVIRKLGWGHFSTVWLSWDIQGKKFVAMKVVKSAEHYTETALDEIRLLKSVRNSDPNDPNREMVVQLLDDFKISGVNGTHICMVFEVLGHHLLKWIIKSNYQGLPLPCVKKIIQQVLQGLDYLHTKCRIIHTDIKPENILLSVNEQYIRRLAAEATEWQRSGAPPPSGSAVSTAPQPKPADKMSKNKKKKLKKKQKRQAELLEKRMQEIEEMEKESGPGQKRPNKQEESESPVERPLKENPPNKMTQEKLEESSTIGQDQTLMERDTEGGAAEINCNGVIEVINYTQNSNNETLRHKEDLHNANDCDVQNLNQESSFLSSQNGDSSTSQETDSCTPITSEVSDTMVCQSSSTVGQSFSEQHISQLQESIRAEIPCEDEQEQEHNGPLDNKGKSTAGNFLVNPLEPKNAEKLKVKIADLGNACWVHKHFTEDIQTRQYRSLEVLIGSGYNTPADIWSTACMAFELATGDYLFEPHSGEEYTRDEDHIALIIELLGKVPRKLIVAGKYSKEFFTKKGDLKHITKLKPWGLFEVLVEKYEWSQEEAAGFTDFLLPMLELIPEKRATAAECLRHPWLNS
TTBK2(h), sequence (Q6IQ55 whole entry): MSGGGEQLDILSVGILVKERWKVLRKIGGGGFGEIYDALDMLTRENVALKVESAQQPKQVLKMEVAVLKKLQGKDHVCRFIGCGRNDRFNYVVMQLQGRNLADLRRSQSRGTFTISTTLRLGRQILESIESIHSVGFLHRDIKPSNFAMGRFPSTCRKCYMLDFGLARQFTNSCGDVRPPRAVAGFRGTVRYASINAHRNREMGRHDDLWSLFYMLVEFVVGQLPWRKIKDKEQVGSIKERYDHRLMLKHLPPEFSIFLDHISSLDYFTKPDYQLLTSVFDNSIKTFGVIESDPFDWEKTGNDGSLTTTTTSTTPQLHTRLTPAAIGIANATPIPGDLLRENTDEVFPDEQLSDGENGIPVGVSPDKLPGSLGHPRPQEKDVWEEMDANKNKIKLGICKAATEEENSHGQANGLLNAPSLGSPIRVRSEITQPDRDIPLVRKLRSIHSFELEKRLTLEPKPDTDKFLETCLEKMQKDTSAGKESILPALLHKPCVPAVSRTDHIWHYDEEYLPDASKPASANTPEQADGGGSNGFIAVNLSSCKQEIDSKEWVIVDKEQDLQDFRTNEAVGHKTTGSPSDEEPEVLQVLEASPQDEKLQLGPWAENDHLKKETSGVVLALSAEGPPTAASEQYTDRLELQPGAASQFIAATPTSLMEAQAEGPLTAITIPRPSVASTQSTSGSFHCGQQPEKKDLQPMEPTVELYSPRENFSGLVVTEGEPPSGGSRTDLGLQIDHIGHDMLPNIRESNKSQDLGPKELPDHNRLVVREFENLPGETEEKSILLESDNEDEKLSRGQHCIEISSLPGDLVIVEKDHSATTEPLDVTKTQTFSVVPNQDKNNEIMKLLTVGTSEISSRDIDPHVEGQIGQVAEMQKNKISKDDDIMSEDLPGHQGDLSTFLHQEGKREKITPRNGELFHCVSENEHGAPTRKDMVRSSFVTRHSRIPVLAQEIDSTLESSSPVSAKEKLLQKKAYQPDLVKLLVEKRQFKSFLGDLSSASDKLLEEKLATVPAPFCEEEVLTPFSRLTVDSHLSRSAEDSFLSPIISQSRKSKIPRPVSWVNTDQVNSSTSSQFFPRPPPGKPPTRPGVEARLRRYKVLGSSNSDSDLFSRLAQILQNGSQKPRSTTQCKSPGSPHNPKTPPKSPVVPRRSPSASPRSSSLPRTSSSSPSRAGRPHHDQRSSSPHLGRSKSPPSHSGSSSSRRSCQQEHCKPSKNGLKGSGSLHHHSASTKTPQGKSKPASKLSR
BTK(h), sequence (Q06187 whole entry): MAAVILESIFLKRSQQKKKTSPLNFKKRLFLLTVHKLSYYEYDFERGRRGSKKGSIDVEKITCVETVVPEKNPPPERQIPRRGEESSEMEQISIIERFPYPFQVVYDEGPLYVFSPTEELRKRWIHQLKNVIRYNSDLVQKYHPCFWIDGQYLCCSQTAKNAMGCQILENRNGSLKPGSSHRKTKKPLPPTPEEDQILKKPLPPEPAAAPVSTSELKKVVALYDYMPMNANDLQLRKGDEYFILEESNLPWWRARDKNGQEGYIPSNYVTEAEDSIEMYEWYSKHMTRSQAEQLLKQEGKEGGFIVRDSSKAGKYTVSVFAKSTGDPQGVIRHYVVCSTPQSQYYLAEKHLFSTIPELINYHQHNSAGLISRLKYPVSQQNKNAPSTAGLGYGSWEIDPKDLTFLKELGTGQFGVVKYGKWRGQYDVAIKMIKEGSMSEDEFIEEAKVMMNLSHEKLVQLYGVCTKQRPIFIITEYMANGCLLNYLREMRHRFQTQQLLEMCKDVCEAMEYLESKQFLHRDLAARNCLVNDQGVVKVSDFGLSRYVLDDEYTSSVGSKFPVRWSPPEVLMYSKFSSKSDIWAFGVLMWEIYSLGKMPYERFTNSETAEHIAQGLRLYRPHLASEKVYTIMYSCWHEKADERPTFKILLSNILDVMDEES
T1 sequence (Q5VT25 whole entry): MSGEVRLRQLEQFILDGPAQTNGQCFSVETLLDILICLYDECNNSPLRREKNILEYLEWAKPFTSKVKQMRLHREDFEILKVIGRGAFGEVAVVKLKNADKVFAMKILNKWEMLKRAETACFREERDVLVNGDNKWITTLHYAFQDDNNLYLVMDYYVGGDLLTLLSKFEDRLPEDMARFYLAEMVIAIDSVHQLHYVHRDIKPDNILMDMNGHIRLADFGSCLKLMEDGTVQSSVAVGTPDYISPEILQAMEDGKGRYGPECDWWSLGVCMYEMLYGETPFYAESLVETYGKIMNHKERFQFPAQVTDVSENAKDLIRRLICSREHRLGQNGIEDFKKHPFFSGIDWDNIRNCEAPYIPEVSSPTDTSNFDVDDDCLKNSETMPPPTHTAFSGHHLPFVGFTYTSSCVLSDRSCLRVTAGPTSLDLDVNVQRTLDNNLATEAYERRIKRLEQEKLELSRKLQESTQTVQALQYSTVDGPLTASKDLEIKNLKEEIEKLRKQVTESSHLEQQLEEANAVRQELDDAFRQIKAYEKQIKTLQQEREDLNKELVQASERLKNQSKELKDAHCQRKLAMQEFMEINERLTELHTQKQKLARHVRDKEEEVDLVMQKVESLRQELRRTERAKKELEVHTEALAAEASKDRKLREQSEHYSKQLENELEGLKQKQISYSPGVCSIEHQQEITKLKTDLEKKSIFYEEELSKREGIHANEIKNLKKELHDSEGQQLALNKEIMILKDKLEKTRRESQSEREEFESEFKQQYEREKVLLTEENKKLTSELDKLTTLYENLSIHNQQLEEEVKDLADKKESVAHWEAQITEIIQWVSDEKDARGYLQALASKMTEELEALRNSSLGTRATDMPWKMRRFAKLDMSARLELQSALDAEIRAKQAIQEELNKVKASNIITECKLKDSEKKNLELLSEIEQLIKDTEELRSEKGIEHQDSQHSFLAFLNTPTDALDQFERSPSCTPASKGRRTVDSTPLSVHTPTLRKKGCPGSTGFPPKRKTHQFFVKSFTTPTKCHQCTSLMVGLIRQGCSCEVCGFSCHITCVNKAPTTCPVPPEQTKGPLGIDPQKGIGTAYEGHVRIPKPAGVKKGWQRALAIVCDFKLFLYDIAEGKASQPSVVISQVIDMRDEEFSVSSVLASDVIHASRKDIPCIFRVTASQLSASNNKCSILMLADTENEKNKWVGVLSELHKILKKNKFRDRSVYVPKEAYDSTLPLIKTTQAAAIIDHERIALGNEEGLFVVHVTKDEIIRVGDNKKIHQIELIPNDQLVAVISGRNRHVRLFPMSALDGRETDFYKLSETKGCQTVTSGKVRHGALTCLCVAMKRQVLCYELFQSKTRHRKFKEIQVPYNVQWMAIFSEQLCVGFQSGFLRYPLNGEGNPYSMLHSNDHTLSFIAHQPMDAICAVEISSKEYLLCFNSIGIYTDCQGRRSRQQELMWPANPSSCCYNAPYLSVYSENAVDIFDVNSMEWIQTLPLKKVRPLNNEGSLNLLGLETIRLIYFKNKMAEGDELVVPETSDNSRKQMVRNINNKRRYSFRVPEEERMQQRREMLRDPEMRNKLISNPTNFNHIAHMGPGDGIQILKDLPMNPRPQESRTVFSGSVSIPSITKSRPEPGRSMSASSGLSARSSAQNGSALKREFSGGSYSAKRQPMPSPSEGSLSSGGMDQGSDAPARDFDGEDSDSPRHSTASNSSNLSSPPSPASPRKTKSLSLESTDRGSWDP

COc1ccc2ncnc(Nc3cccc(F)c3)c2c1 [5ay, N-(3-Fluorophenyl)-6-Methoxy-4-Quinazolinamine] was tested, and the remaining activity at 10 µM (MRCKα(h); [1]) was 87%, the remaining activity at 10 µM (BTK(h); [1]) was 126% and the remaining activity at 10 µM (TTBK2(h); [1]) was 114%. For the same molecule, the remaining activity at 10 µM (Txk(h); [1]) was 85%, the remaining activity at 10 µM (SRPK1(h); [1]) was 116% and the remaining activity at 10 µM (Flt3(h); [1]) was 70%.
With Fc1ccc(CNc2ncnc3ccc(F)cc23)cc1 [5aa, 6-Fluoro-N-(4-fluorobenzyl)-4-Quinazolinamine] the remaining activity at 10 µM (MRCKα(h); [2]) was 91%, the remaining activity at 10 µM (BTK(h); [2]) was 123% and the remaining activity at 10 µM (TTBK2(h); [2]) was 117%. It also gave a remaining activity at 10 µM (Txk(h); [2]) of 92%, a remaining activity at 10 µM (SRPK1(h); [2]) of 121% and a remaining activity at 10 µM (Flt3(h); [2]) of 71%.
Fc1ccc2ncnc(NCCc3ccc(Cl)cc3)c2c1 [5at, N-[2-(4-Chlorophenyl)Ethyl]-6-Fluoro-4-Quinazolinamine] showed a remaining activity at 10 µM (MRCKα(h); [3]) of 98%, a remaining activity at 10 µM (BTK(h); [3]) of 96% and a remaining activity at 10 µM (TTBK2(h); [3]) of 111%. For the same molecule, the remaining activity at 10 µM (Txk(h); [3]) was 82%, the remaining activity at 10 µM (SRPK1(h); [3]) was 108% and the remaining activity at 10 µM (Flt3(h); [3]) was 62%.
Fc1ccc(CCNc2ncnc3ccc(F)cc23)cc1 [5as, 6-Fluoro-N-[2-(4-Fluorophenyl)Ethyl]-4-Quinazolinamine] gave a remaining activity at 10 µM (MRCKα(h); [4]) of 93%, a remaining activity at 10 µM (BTK(h); [4]) of 113% and a remaining activity at 10 µM (TTBK2(h); [4]) of 107%. The remaining activity at 10 µM (Txk(h); [4]) was 83%, the remaining activity at 10 µM (SRPK1(h); [4]) was 112% and the remaining activity at 10 µM (Flt3(h); [4]) was 73%.
